# Values joined by “and” are separate entries in the source; they are usually repeats but may differ in a detail not shown here. Identical values can stand only once. “Also recorded” adds a separate entry of the source.
# What was measured:
# [1] = tested on: MDA-MB-231 cells; assay: Clonogenic assay; type: cell-based; details: Fig. 2f, vehicle (Rtx-161 zero)
# Experimental: (§1) Cells were plated on six or twelve or twenty-four well plates. In six well plate, 1000 cells/ well of BRCA2 -/-, BRCA1 -/-, PALB2 mut and 500 cells/ well of wildtype pair was plated; In twelve well plate, 600 cells/ well of BRCA2 -/-, BRCA1 -/-, PALB2 mut and 400 cells/ well of wildtype pair was plated; In twenty-four well plate, 500 cells/ well of BRCA2 -/-, BRCA1 -/-, PALB2 mut and 300 cells/ well of wildtype pair was plated. For MEFs, 300 cells per well in six-well plate were seeded. The medium was replaced every 2 days until the colonies were ready for staining in 10–12 days. For staining: Medium was removed from plates, and cells were rinsed with PBS. Fixation was carried out with—Water: Ethanol: Acetic acid (5:4:1) for 30 min followed by staining of colonies with 0.5% crystal violet in Water: Ethanol (3:2) for 2 h at room temperature. The plates were rinsed with water and left for drying overnight at room temperature. Colonies were then counted and IC50 was calculated using results from 3 or more independent experiments. Response curves are shown as mean colony formation +/- S.E.M.
# (§2) Data are expressed as mean ± SEM from at least 3 independent experiments with triplicates for each condition unless stated otherwise. When conducting comparison between two groups, two-tailed unpaired t-test was used. Significance was assumed at p < 0.05. Asterisks in the figures indicate significance, ^∗p < 0.05, ^∗∗p < 0.01, ^∗∗∗p < 0.001. Combenefit® software version 2.021 was used to perform synergy analyses for drug combinations between RTx-161 and PARPi. GraphPad Prism 9 software was used to calculate IC50.
# [2] = tested on: DLD1 BRCA2 -/- cells; assay: Clonogenic assay; type: cell-based; details: for average / percent suvival / replicate counts: vehicle, DLD1-BRCA2 null cells
# Experimental: as §1, §2
# [3] = tested on: DLD1 Parental cells; assay: Clonogenic assay; type: cell-based; details: Olaparib 1 μM, BRCA2-WT
# Experimental: as §1
# [4] = target: T1, Polθ-pol (Homo sapiens, UniProt O75417); assay: Cy5 fluorescence Polθ-pol DNA synthesis (strand displacement) IC50 assay; type: biochemical; details: 5 nM PolQ, 18 min
# T1 construct: purified recombinant human Polθ-pol (comprising amino acid residues 1792–2590); made in house
# T1 sequence (O75417 1792-2590): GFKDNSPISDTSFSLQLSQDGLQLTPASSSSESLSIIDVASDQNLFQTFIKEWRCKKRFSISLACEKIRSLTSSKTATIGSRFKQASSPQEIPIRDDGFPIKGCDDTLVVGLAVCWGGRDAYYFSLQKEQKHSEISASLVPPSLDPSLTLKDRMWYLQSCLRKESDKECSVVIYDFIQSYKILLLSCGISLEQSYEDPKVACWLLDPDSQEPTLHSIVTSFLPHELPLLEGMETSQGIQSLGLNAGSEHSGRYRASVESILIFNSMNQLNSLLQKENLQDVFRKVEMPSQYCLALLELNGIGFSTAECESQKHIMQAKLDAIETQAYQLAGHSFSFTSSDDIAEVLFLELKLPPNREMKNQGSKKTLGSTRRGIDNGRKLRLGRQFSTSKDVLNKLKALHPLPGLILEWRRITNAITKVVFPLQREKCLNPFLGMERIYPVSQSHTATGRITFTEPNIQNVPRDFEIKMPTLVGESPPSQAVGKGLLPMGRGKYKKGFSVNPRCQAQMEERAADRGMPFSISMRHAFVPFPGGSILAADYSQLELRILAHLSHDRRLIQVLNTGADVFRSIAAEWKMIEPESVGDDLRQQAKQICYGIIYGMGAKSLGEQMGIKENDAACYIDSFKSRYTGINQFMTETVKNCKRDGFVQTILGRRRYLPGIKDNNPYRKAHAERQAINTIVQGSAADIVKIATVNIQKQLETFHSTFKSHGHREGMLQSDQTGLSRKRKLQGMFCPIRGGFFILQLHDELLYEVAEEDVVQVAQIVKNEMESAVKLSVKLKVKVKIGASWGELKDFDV
# Experimental: The following Cy5 fluorescence assay was used to measure the ability of compounds to inhibit Polθ-pol in vitro. The fluorescent based assay was performed as follows: 60 nM of the pre-annealed primer-template containing a 5’ Cy5 fluorophore conjugated template strand (RP486-Cy5), a downstream complementary oligo conjugated with a 3’ Iowa BlackReg Dark quencher (RP343BHQRQ) and a primer strand (RP469D) was mixed with 50 uM 2'-deoxyribonucleoside triphosphates (dNTPs), 0.1 mg/mL Bovine serum albumin (BSA), 0.01% NP-40, 10% glycerol, 1 mM dithiothreitol (DTT), 10 mM MgCl2, 25 mM TrisHCl pH 7.8 in the presence of 2.5% DMSO with or without various concentrations (7-point dilution series) of Polθ-pol small-molecule inhibitors at 37 °C in a volume of 40 μL. The reactions were initiated by the addition of 5 nM of purified recombinant human Polθ-pol (comprising amino acid residues 1792–2590). The reactions were terminated by the addition of 20 mM EDTA after 18 min, and the Cy5 fluorescence intensity was measured using a CLARIOstar (BMG Labtech) plate reader. Reactions were performed in triplicate and the % inhibition at each concentration of the respective compound of Formula I was based on the mean.
# [5] = Clonogenic assay, OLA with or without RTX-161 (Fig. 2 a; cell line not given); type: cell-based; details: vehicle, single experiments
compound,measurement,setting,value
Cn1ncnc1[C@H]1c2n[nH]c(=O)c3cc(F)cc(c23)N[C@@H]1c1ccc(F)cc1 [Talazoparib],percent suvival,"[1]; Talazoparib 12.5 nano M, experiment block 1 (c0-c7)",83.7456%
same,percent suvival,"[1]; Talazoparib 12.5 nano M, experiment block 2 (c8-c15)",90.5063%
same,percent suvival,"[1]; Talazoparib 12.5 nano M, experiment block 3 (c16-c23)",79.3478%
same,percent suvival,"[1]; Talazoparib 25 nano M, experiment block 1 (c0-c7)",72.4382%
same,percent suvival,"[1]; Talazoparib 25 nano M, experiment block 2 (c8-c15)",53.1646%
same,percent suvival,"[1]; Talazoparib 25 nano M, experiment block 3 (c16-c23)",57.0652%
same,percent suvival,"[1]; Talazoparib 50 nano M, experiment block 1 (c0-c7)",24.735%
same,percent suvival,"[1]; Talazoparib 50 nano M, experiment block 2 (c8-c15)",34.1772%
same,percent suvival,"[1]; Talazoparib 50 nano M, experiment block 3 (c16-c23)",30.9783%
"O=C(c1cc(Cc2n[nH]c(=O)c3ccccc23)ccc1F)N1CCN(C(=O)C2CC2)CC1 [Olaparib, reference compound]",Average (colonies),"[2]; Olaparib 1 μM, BRCA2-NULL",0
same,Percent survival,"[2]; Olaparib 1 μM, BRCA2-NULL",0
same,selective killing / synthetic lethality in BRCA2-null DLD1 cells,"[2]; colony survival, versus BRCA2-WT",selective killing; also recorded: induction of synthetic lethality
same,Average (colonies),[3],102.667
same,Percent survival,[3],99.6764
ART-558,"raw signal, Trial 1-3","[4]; 0.0016 μM compound, 60 nM 469D/343-BHQRQ/486-Cy5 DNA",191.03 and 186.60 and 188.77
same,"% Activity, Average","[4]; 0.0016 μM compound, 60 nM DNA",85.90%
same,"% Activity, Trial 1-3","[4]; 0.0016 μM compound, 60 nM DNA",80.91% and 85.80% and 91.00%
same,"% Inhibition, Average","[4]; 0.0016 μM compound, 60 nM DNA",14.10%
same,"raw signal, Average","[4]; 0.0016 μM compound, 60 nM DNA",188.80
same,"% Activity, Average","[4]; 0.0049 μM compound, 60 nM DNA",70.18%
same,"% Activity, Trial 1-3","[4]; 0.0049 μM compound, 60 nM DNA",67.33% and 75.35% and 67.85%
same,"% Inhibition, Average","[4]; 0.0049 μM compound, 60 nM DNA",29.82%
same,"% Inhibition, Trial 1-3","[4]; 0.0049 μM compound, 60 nM DNA",32.67% and 24.65% and 32.15%
same,"raw signal, Average","[4]; 0.0049 μM compound, 60 nM DNA",168.11
same,"raw signal, Trial 1-3","[4]; 0.0049 μM compound, 60 nM DNA",171.92 and 173.21 and 159.20
same,"% Activity, Average","[4]; 0.0148 μM compound, 60 nM DNA",44.31%
same,"% Activity, Trial 1-3","[4]; 0.0148 μM compound, 60 nM DNA",42.11% and 41.00% and 49.82%
same,"% Inhibition, Average","[4]; 0.0148 μM compound, 60 nM DNA",55.69%
same,"% Inhibition, Trial 1-3","[4]; 0.0148 μM compound, 60 nM DNA",57.89% and 59.00% and 50.18%
same,"raw signal, Average","[4]; 0.0148 μM compound, 60 nM DNA",133.93
same,"raw signal, Trial 1-3","[4]; 0.0148 μM compound, 60 nM DNA",136.44 and 129.18 and 136.16
same,"% Activity, Average","[4]; 0.0444 μM compound, 60 nM DNA",20.55%
same,"% Activity, Trial 1-3","[4]; 0.0444 μM compound, 60 nM DNA",21.44% and 16.79% and 23.44%
same,"% Inhibition, Average","[4]; 0.0444 μM compound, 60 nM DNA",79.45%
same,"% Inhibition, Trial 1-3","[4]; 0.0444 μM compound, 60 nM DNA",78.56% and 83.21% and 76.56%
same,"raw signal, Average","[4]; 0.0444 μM compound, 60 nM DNA",102.66
same,"raw signal, Trial 1-3","[4]; 0.0444 μM compound, 60 nM DNA",107.36 and 98.15 and 102.46
same,"% Activity, Average","[4]; 0.1333 μM compound, 60 nM DNA",6.69%
same,"% Activity, Trial 1-3","[4]; 0.1333 μM compound, 60 nM DNA",5.64% and 7.63% and 6.80%
same,"% Inhibition, Average","[4]; 0.1333 μM compound, 60 nM DNA",93.31%
same,"% Inhibition, Trial 1-3","[4]; 0.1333 μM compound, 60 nM DNA",94.36% and 92.37% and 93.20%
same,"raw signal, Average","[4]; 0.1333 μM compound, 60 nM DNA",84.25
same,"raw signal, Trial 1-3","[4]; 0.1333 μM compound, 60 nM DNA",85.13 and 86.41 and 81.22
same,"% Activity, Average","[4]; 0.4000 μM compound, 60 nM DNA",2.48%
same,"% Activity, Trial 1-3","[4]; 0.4000 μM compound, 60 nM DNA",0.51% and 1.19% and 5.76%
same,"% Inhibition, Average","[4]; 0.4000 μM compound, 60 nM DNA",97.52%
same,"% Inhibition, Trial 1-3","[4]; 0.4000 μM compound, 60 nM DNA",99.49% and 98.81% and 94.24%
same,"raw signal, Average","[4]; 0.4000 μM compound, 60 nM DNA",78.65
same,"raw signal, Trial 1-3","[4]; 0.4000 μM compound, 60 nM DNA",77.91 and 78.16 and 79.89
O=C(c1cc(Cc2n[nH]c(=O)c3ccccc23)ccc1F)N1CCN(C(=O)C2CC2)CC1 [OLA],average,[2]; OLA 3.125 nano M,100
same,percent suvival,[2]; OLA 3.125 nano M,96.463%
same,replicate counts,[2]; OLA 3.125 nano M,99 and 93 and 108
same,average,[2]; OLA 6.25 nano M,86
same,percent suvival,[2]; OLA 6.25 nano M,82.9582%
same,replicate counts,[2]; OLA 6.25 nano M,84 and 95 and 79
same,average,[2]; OLA 12.50 nano M,68.3333
same,percent suvival,[2]; OLA 12.50 nano M,65.9164%
same,replicate counts,[2]; OLA 12.50 nano M,64 and 72 and 69
same,average,[2]; OLA 25.00 nano M,45.6667
same,percent suvival,[2]; OLA 25.00 nano M,44.0514%
same,replicate counts,[2]; OLA 25.00 nano M,49 and 40 and 48
same,average,[2]; OLA 50.00 nano M,38
same,percent suvival,[2]; OLA 50.00 nano M,36.6559%
same,replicate counts,[2]; OLA 50.00 nano M,37 and 42 and 35
same,average,[2]; OLA 100.00 nano M,20.3333
same,percent suvival,[2]; OLA 100.00 nano M,19.6141%
same,replicate counts,[2]; OLA 100.00 nano M,24 and 18 and 19
same,percent suvival,[5]; OLA 0.125 nano M,98.3333%
same,percent suvival,[5]; OLA 0.25 nano M,90.8333% and 74.269% and 96.7105%
same,percent suvival,[5]; OLA 0.5 nano M,67.8363% and 93.4211% and 71.6667%
same,percent suvival,[5]; OLA 1 nano M,43.3333% and 47.9532% and 73.6842%
same,percent suvival,[5]; OLA 2 nano M,35% and 27.4854% and 32.2368%
same,percent suvival,[5]; OLA 4 nano M,17.5% and 9.357% and 9.868%

# From PMC10997755, “Discovery of a small-molecule inhibitor that traps Polθ on DNA and synergizes with PARP inhibitors” (Nature Communications, 2024)
